Measured values taken from patent US20150218212A1, “FLUORINATED EPOXYKETONE-BASED TETRAPEPTIDE COMPOUNDS AND USES THEREOF AS PROTEASOME INHIBITORS” (FLUORINOV PHARMA INC., priority 2012, published 2015).

Tests used:
MDA-MB-231/ATCC = assay: NCI screening panel, MDA-MB-231/ATCC (Breast Cancer); type: cell-based, human
Procedure: (§1) Representative compounds of Formula I were screened using the National Cancer Institute (NCI) screening panel, which consists of a panel of human tumor cell lines, representing leukemia, melanoma, and cancers of the lung, colon, ovary, breast, prostate and renal system.
(§2) After 24 h, two plates of each cell line are fixed in situ with TCA, to represent a measurement of the cell population for each cell line at the time of drug addition (Tz). Experimental drugs are solubilised in dimethyl sulfoxide at 400-fold the desired final maximum test concentration and stored frozen prior to use. At the time of drug addition, an aliquot of frozen concentrate is thawed and diluted to twice the desired final maximum test concentration with complete medium containing 50 μg/mL gentamicin. Additional four, 10-fold or ½ log serial dilutions are made to provide a total of five drug concentrations plus control. Aliquots of 100 μl of these different drug dilutions are added to the appropriate microtiter wells already containing 100 μl of medium, resulting in the required final drug concentrations.
(§3) Following drug addition, the plates are incubated for an additional 48 h at 37° C., 5% CO2, 95% air, and 100% relative humidity. For adherent cells, the assay is terminated by the addition of cold TCA (trichloroacetic acid). Cells are fixed in situ by the gentle addition of 50 μl of cold 50% (w/v) TCA (final concentration, 10% TCA) and incubated for 60 minutes at 4° C. The supernatant is discarded, and the plates are washed five times with tap water and air dried. Sulforhodamine B (SRB) solution (100 μl) at 0.4% (w/v) in 1% acetic acid is added to each well, and plates are incubated for 10 minutes at room temperature. After staining, unbound dye is removed by washing five times with 1% acetic acid and the plates are air dried. Bound stain is subsequently solubilised with 10 mM trizma base, and the absorbance is read on an automated plate reader at a wavelength of 515 nm. For suspension cells, the methodology is the same except that the assay is terminated by fixing settled cells at the bottom of the wells by gently adding 50 μl of 80% TCA (final concentration, 16% TCA). Using the seven absorbance measurements [time zero, (Tz), control growth, (C), and test growth in the presence of drug at the five concentration levels (Ti)], the percentage growth is calculated at each of the drug concentrations levels. Percentage growth inhibition is calculated as: [(Ti−Tz)/(C−Tz)]×100 for concentrations for which Ti>/=Tz and [(Ti−Tz)/Tz]×100 for concentrations for which Ti<Tz.
(§4) Three dose response parameters are calculated for each experimental agent. Growth inhibition of 50% (GI50) is calculated from [(Ti−Tz)/(C−Tz)]×100=50, which is the drug concentration resulting in a 50% reduction in the net protein increase (as measured by SRB staining) in control cells during the drug incubation. The drug concentration resulting in total growth inhibition (TGI) is calculated from Ti=Tz. The LC50 (concentration of drug resulting in a 50% reduction in the measured protein at the end of the drug treatment as compared to that at the beginning) indicating a net loss of cells following treatment is calculated from [(Ti−Tz)/Tz]×100=−50. Values are calculated for each of these three parameters if the level of activity is reached. However, if the effect is not reached or is exceeded, the value for that parameter is expressed as greater or less than the maximum or minimum concentration tested.

CAKI-1 = assay: NCI screening panel, CAKI-1 (Renal Cancer); type: cell-based, human
Procedure: as §1, §2, §3, §4

UACC-62 = assay: NCI screening panel, UACC-62 (Melanoma); type: cell-based, human
Procedure: as §1, §2, §3, §4

KMS-11 = assay: Cell viability (MTS) assay, KMS-11; type: cell-based; settings: Homo sapiens; KMS-11, MTS, 72 hours, mean ± standard deviation
Procedure: Human multiple myeloma cell lines 8226, H929, JJN3, KMH11, KMS11, KMS18, LP1, MM1S, OPM2 and U266 were grown in Iscove modified Dulbecco's medium (IMDM). Human leukemia cell lines K562, OCI-AML2 and U937 were cultured in RPMI-1640 medium. Primary peripheral blood mononuclear cells were isolated from multiple myeloma patients by Ficoll density gradient centrifugation and bone marrow aspirates were obtained from multiple myeloma patients at the Princess Margaret Cancer Centre of the University Health Network (UHN; Toronto, ON, Canada). Primary cells were cultured in IMDM. The collection and use of human tissue for this study was approved by the UHN institutional ethics review board. All cell culture media were obtained from the Ontario Cancer Institute Tissue Culture Media Facility (Toronto, ON, Canada) and were supplemented with 10% fetal calf serum, […] (Hyclone, Logan, Utah). All cells were grown in a humidified incubator at 37° C. with 5% CO2.
Cellular viability was primarily assessed by 3-(4,5-dimethylthiazol-2-yl)-5-(3-carboxymethoxyphenyl)-2-(4-sulfophenyl)-2H-tetrazolium (MTS) assay according to the manufacturer's instructions (Promega; Madison, Wis.). Cells were first seeded at a density of 10,000 cells per well in tissue culture-treated 96-well plates. Two hours after seeding, cells were treated with compounds for 72 hours at concentrations as indicated. As a control, cells were treated with DMSO alone in every assay plate. Following treatment and the MTS assay, cell viability was independently confirmed by reading the optical density (O.D.) at 490 nm and by exclusion of trypan blue stain (Invitrogen; Burlington, ON, Canada). The viability of primary mononuclear cells was determined by staining with Annexin V.
Table 8 summarizes the data of representative compounds of Formula I for cell viability and CT-L proteasome activity with OCI-AML-2 and KMS-11 cell lines.

SR = assay: NCI screening panel, SR (Leukemia); type: cell-based, human
Procedure: as §1, §2, §3, §4

MALME-3M = assay: NCI screening panel, MALME-3M (Melanoma); type: cell-based, human
Procedure: as §1, §2, §3, §4

MCF7 = assay: NCI screening panel, MCF7 (Breast Cancer); type: cell-based, human
Procedure: as §1, §2, §3, §4

SF-295 = assay: NCI screening panel, SF-295 (CNS Cancer); type: cell-based, human
Procedure: as §1, §2, §3, §4

LOX IMVI = assay: NCI screening panel, LOX IMVI (Melanoma); type: cell-based, human
Procedure: as §1, §2, §3, §4

KM12 = assay: NCI screening panel, KM12 (Colon Cancer); type: cell-based, human
Procedure: as §1, §2, §3, §4

NCI-H460 = assay: NCI screening panel, NCI-H460 (Non-Small Cell Lung Cancer); type: cell-based, human
Procedure: as §1, §2, §3, §4

| Compound | Log10GI50 (MDA-MB-231/ATCC) | Log10LC50 (MDA-MB-231/ATCC) | Log10TGI50 (MDA-MB-231/ATCC) | Log10GI50 (CAKI-1) | Log10LC50 (CAKI-1) | Log10TGI50 (CAKI-1) | Log10GI50 (UACC-62) | Log10LC50 (UACC-62) | Log10TGI50 (UACC-62) | IC50 (KMS-11) | Log10GI50 (SR) | Log10LC50 (SR) | Log10TGI50 (SR) | Log10GI50 (MCF7) | Log10LC50 (MCF7) | Log10TGI50 (MCF7) | Log10GI50 (SF-295) | Log10LC50 (SF-295) | Log10TGI50 (SF-295) | Log10GI50 (LOX IMVI) | other results |
| --- | --- | --- | --- | --- | --- | --- | --- | --- | --- | --- | --- | --- | --- | --- | --- | --- | --- | --- | --- | --- | --- |
| CC(C)C[C@H](NC(=O)[C@H](COC(F)F)NC(=O)CN1CCOCC1)C(=O)N[C@@H](COC(F)F)C(=O)N[C@@H](CC(C)C)C(=O)[C@@]1(C)CO1 [Example 1, (2S)—N-[(1S)-1-(difluoromethoxymethyl)-2-[[(1S)-3-methyl-1-[(2R)-2-methyloxirane-2-carbonyl]butyl]amino]-2-oxo-ethyl]-2-[[(2S)-3-(difluoromethoxy)-2-[(2-morpholinoacetyl)amino]propanoyl]amino]-4-methyl-pentanamide] | −7.52 | >−4.00 | −6.76 | −6.29 | >−4.00 | −5.24 | −7.60 | >−4.00 | −6.95 | 26.6 ± 8.47 nM | −7.52 | >−4.00 | −4.61 | <−8.00 | >−4.00 | −5.18 | −7.51 | −6.09 | −6.88 | −7.85 | Log10GI50 (MALME-3M): −7.39; Log10LC50 (MALME-3M): >−4.00; Log10TGI50 (MALME-3M): −6.49; Log10LC50 (LOX IMVI): −7.16; Log10TGI50 (LOX IMVI): −7.51; Log10GI50 (KM12): −7.76; Log10LC50 (KM12): −7.10; Log10TGI50 (KM12): −7.43; Log10GI50 (NCI-H460): −7.30; Log10LC50 (NCI-H460): >−4.00; Log10TGI50 (NCI-H460): −6.39 |
| CC(C)C[C@H](NC(=O)[C@H](COC(F)F)NC(=O)CN1CCOCC1)C(=O)N[C@@H](Cc1ccccc1)C(=O)N[C@@H](CC(C)C)C(=O)[C@@]1(C)CO1 [Example 2, (2S)-N-[(1S)-1-benzyl-2-[[(1S)-3-methyl-1-[(2R)-2-methyloxirane-2-carbonyl]butyl]-amino]-2-oxo-ethyl]-2-[[(2S)-3-(difluoromethoxy)-2-[(2-morpholinoacetyl)amino]propanoyl]amino]-4-methyl-pentanamide] | −7.63 | −4.37 | −6.79 | −6.68 | >−4.00 | −5.93 | −7.59 | >−4.00 | −6.82 | 21.9 ± 0.342 nM | <−8.00 | >−4.00 | >−4.00 | <-8.00 | >−4.00 | −4.94 | −7.80 | −6.42 | −7.28 | <−8.00 | Log10LC50 (LOX IMVI): −7.21; Log10TGI50 (LOX IMVI): −7.62; Log10GI50 (KM12): −7.85; Log10LC50 (KM12): −7.01; Log10TGI50 (KM12): −7.43; Log10GI50 (NCI-H460): −7.37; Log10LC50 (NCI-H460): >−4.00; Log10TGI50 (NCI-H460): −6.57 |
| CC(C)C[C@H](NC(=O)[C@H](COC(F)F)NC(=O)CN1CCOCC1)C(=O)N[C@@H](Cc1ccccc1)C(=O)N[C@@H](Cc1ccccc1)C(=O)[C@@]1(C)CO1 [Example 3, (2S)-N-[(1S)-1-benzyl-2-[[(1S)-1-benzyl-2-[(2R)-2-methyloxiran-2-yl]-2-oxo-ethyl]amino]-2-oxo-ethyl]-2-[[(2S)-3-(difluoromethoxy)-2-[(2-morpholinoacetyl)-amino]propanoyl]amino]-4-methyl-pentan-amide] | <−8.00 | −4.81 | −7.08 | −7.11 | −4.92 | −6.30 | −7.93 | −6.13 | −7.17 | 17.6 ± 0.629 nM | <−8.00 | >−4.00 | >−4.00 | <−8.00 | >−4.00 | −4.65 | −7.34 | −6.24 | −6.75 | <−8.00 | Log10GI50 (MALME-3M): −7.65; Log10LC50 (MALME-3M): >−4.00; Log10TGI50 (MALME-3M): −7.07; Log10LC50 (LOX IMVI): −7.13; Log10TGI50 (LOX IMVI): −7.71; Log10GI50 (KM12): <−8.00; Log10LC50 (KM12): −7.16; Log10TGI50 (KM12): −7.74; Log10GI50 (NCI-H460): −7.43; Log10LC50 (NCI-H460): −5.64; Log10TGI50 (NCI-H460): −6.77 |
| CC(C)C[C@H](NC(=O)[C@H](COC(F)F)NC(=O)CN1CCOCC1)C(=O)N[C@@H](COC(F)F)C(=O)N[C@@H](Cc1ccccc1)C(=O)[C@@]1(C)CO1 [Example 4, (2S)-N-[(1S)-2-[[(1S)-1-benzyl-2-[(2R)-2-methyloxiran-2-yl]-2-oxo-ethyl]amino]-1-(difluoromethoxymethyl)-2-oxo-ethyl]-2-[[(2S)-3-(difluoromethoxy)-2-[(2-mor-pholinoacetyl)amino]propanoyl]amino]-4 methyl-pentanamide] | −7.45 | −4.14 | −6.37 | −6.20 | >−4.00 | −5.22 | −7.39 | −4.67 | −6.59 | 33.9 ± 2.11 nM | −7.66 | >−4.00 | >−4.00 | <−8.00 | >−4.00 | −4.82 | −7.48 | −5.22 | −6.60 | −7.77 | Log10GI50 (MALME-3M): −7.49; Log10LC50 (MALME-3M): >−4.00; Log10TGI50 (MALME-3M): −6.38; Log10LC50 (LOX IMVI): −7.06; Log10TGI50 (LOX IMVI): −7.42; Log10GI50 (KM12): −7.70; Log10LC50 (KM12): −6.44; Log10TGI50 (KM12): −7.29; Log10GI50 (NCI-H460): −6.84; Log10LC50 (NCI-H460): −4.04; Log10TGI50 (NCI-H460): −6.19 |
